In PMC10175918 (Communications Biology, 2023):
Where two headings read alike, the source gives them in different places.

Tests used:
Assay in all cases: TGFα-shedding assay-based GPCR screening with chimeric Gα subunit proteins
Assay type in all cases: cell-based
348 GPCRs [1] = biological target: T1, 348 GPCRs (Homo sapiens, UniProt P43088); settings: 10µM, Favipiravir 100μM
T1 construct: expressed in transfected cells; host or cells: HEK293A

348 GPCRs [2] = biological target: T2, 348 GPCRs (Homo sapiens, UniProt Q13258); settings: 10µM, Favipiravir 100μM
T2 sequence (Q13258 1-359): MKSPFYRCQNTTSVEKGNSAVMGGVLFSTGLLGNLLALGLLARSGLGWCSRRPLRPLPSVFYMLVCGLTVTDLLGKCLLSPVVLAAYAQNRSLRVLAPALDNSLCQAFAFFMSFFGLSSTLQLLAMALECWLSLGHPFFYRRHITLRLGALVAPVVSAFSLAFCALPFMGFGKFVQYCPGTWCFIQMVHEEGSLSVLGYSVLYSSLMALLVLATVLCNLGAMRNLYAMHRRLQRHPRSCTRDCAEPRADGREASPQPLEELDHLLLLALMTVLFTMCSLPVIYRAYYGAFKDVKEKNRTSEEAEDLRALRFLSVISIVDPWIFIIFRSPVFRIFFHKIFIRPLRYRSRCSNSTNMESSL

348 GPCRs [3] = biological target: T3, 348 GPCRs (Homo sapiens, UniProt Q9GZQ4); settings: 10µM, Favipiravir 100μM
T3 construct: expressed in transfected cells; host or cells: HEK293A
T3 sequence (Q9GZQ4 whole entry): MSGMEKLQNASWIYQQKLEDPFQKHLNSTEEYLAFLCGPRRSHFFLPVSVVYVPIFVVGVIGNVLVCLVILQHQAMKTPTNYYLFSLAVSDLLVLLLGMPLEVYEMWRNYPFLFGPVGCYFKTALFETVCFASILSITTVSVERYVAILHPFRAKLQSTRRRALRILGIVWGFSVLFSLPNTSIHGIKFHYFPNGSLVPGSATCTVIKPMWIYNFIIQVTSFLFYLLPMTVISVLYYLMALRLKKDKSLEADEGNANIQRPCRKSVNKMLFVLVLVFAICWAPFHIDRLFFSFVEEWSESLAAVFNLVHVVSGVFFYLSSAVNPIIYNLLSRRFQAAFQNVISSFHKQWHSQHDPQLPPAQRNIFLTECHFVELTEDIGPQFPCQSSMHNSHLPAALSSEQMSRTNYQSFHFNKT

348 GPCRs [4] = biological target: T4, 348 GPCRs (Homo sapiens, UniProt Q6U736); settings: 10µM, Favipiravir 100μM
T4 construct: expressed in transfected cells; host or cells: HEK293A
T4 sequence (Q6U736 whole entry): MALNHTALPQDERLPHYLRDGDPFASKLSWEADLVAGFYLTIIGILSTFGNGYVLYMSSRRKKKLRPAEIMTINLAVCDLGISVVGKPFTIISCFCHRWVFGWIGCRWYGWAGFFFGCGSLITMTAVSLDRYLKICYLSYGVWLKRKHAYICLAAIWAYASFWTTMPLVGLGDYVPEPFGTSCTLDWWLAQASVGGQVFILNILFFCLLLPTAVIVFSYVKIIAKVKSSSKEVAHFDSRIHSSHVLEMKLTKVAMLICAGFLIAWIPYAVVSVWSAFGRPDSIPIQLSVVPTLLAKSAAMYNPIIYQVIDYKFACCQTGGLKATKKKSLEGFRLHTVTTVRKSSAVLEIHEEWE

348 GPCRs [5] = biological target: T5, 348 GPCRs (Homo sapiens, UniProt P25101); settings: 10µM, Favipiravir 100μM
T5 construct: expressed in transfected cells; host or cells: HEK293A
T5 sequence (P25101 21-427): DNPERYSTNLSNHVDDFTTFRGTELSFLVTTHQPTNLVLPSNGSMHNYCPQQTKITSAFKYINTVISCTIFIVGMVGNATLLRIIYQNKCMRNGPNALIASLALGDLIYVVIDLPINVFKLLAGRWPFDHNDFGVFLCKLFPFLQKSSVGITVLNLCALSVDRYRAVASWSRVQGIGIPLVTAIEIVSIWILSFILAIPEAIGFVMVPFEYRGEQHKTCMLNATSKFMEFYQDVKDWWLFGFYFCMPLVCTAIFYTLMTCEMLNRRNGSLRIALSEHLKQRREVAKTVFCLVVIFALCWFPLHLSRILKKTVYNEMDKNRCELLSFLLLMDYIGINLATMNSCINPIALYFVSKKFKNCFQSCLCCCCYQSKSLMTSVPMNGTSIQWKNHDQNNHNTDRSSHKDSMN

348 GPCRs [6] = biological target: T6, 348 GPCRs (Homo sapiens, UniProt P30988); settings: 10µM, Favipiravir 100μM
T6 sequence (P30988 25-474): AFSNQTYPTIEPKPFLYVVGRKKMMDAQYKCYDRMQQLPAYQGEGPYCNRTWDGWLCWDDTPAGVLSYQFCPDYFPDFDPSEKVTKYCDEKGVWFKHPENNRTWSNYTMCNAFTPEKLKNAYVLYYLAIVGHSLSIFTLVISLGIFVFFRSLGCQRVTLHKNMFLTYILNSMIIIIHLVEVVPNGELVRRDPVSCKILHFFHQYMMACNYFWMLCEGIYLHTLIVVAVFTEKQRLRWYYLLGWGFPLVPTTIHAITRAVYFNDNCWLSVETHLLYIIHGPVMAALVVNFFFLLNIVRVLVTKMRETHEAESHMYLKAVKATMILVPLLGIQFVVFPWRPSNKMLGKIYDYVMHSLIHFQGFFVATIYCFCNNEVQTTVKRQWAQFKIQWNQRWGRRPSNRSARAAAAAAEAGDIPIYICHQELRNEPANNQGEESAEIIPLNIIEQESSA

348 GPCRs [7] = biological target: T7, 348 GPCRs (Homo sapiens, UniProt O60755); settings: 10µM, Favipiravir 100μM
T7 construct: expressed in transfected cells; host or cells: HEK293A
T7 sequence (O60755 1-368): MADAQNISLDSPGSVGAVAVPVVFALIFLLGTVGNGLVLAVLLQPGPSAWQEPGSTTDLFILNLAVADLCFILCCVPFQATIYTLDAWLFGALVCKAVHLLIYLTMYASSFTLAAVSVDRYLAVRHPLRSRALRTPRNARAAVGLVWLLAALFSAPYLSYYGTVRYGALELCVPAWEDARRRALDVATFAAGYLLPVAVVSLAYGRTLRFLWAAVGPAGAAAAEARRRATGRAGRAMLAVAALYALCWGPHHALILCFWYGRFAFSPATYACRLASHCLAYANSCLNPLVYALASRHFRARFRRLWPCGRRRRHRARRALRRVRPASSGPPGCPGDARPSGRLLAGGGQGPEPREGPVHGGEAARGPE

348 GPCRs [8] = biological target: T8, 348 GPCRs (Homo sapiens, UniProt P30550); settings: 10µM, Favipiravir 100μM
T8 construct: expressed in transfected cells; host or cells: HEK293A
T8 sequence (P30550 whole entry): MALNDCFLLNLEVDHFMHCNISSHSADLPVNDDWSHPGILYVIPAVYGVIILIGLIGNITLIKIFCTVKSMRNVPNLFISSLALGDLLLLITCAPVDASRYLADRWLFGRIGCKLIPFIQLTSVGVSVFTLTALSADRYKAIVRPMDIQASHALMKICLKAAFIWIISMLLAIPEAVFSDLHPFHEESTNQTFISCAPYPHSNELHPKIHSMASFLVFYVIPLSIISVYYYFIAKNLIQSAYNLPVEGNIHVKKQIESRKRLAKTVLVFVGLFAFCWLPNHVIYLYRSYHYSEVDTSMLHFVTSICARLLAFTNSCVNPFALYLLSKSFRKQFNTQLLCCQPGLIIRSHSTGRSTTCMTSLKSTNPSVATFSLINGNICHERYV

348 GPCRs [9] = biological target: T9, 348 GPCRs (Homo sapiens, UniProt P08172)
T9 sequence (P08172 1-466): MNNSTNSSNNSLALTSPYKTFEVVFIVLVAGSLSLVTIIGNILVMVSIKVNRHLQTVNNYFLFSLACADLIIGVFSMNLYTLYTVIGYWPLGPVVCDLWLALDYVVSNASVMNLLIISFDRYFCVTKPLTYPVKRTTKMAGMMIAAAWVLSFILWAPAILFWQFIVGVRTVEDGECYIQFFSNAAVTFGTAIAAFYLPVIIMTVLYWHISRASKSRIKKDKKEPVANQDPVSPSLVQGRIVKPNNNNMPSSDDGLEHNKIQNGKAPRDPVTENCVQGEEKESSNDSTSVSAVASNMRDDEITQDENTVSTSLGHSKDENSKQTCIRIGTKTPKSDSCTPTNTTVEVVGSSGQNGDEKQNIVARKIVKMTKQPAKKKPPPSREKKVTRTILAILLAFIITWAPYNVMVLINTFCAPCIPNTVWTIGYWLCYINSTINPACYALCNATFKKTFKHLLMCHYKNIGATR

[10] = FP (prostaglandin F receptor), read-out: % GPCR activation compared to TPA
[11] = DP (prostaglandin D2 receptor), read-out: % GPCR activation compared to TPA
[12] = NMUR2 (neuromedin U receptor 2), read-out: % GPCR activation compared to TPA
[13] = OPN5 (opsin 5), read-out: % GPCR activation compared to TPA
[14] = EDNRA (endothelin receptor type A), read-out: % GPCR activation compared to TPA
[15] = CALCR (calcitonin receptor), read-out: % GPCR activation compared to TPA
[16] = GALR3 (galanin receptor 3), read-out: % GPCR activation compared to TPA
[17] = GRPR (gastrin-releasing peptide receptor), read-out: % GPCR activation compared to TPA
[18] = GPCR M2 (Muscarinic acetylcholine receptor M2), read-out: % GPCR activation compared to TPA
[19] = read-out: % GPCR activation compared to TPA, FP (prostaglandin F receptor)
[20] = read-out: % GPCR activation compared to TPA, DP (prostaglandin D2 receptor)
[21] = read-out: % GPCR activation compared to TPA, NMUR2 (neuromedin U receptor 2)
[22] = read-out: % GPCR activation compared to TPA, OPN5 (opsin 5)
[23] = read-out: % GPCR activation compared to TPA, EDNRA (endothelin receptor type A)
[24] = read-out: % GPCR activation compared to TPA, CALCR (calcitonin receptor)
[25] = read-out: % GPCR activation compared to TPA, GALR3 (galanin receptor 3)
[26] = read-out: % GPCR activation compared to TPA, GRPR (gastrin-releasing peptide receptor)
[27] = read-out: % GPCR activation compared to TPA, GPCR M2 (Muscarinic acetylcholine receptor M2)

T1 sequence (P43088 whole entry): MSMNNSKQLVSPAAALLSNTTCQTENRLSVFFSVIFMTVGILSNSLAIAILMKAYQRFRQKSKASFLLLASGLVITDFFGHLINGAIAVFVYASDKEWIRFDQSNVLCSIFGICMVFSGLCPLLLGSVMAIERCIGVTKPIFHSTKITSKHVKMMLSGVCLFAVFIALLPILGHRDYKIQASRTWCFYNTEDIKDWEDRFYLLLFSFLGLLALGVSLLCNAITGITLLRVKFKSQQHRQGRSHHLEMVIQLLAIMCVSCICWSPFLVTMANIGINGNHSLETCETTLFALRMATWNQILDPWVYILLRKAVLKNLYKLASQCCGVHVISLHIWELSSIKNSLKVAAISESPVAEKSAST

| SMILES | activation at 10 µM (348 GPCRs [1]; [10]) | activation at 100 µM (348 GPCRs [2]; [11]) | activation at 10 µM (348 GPCRs [3]; [12]) | activation at 100 µM (348 GPCRs [4]; [13]) | activation at 100 µM (348 GPCRs [5]; [14]) | activation at 100 µM (348 GPCRs [6]; [15]) | activation at 100 µM (348 GPCRs [7]; [16]) | activation at 10 µM (348 GPCRs [8]; [17]) | activation at 10 µM (348 GPCRs [9]; [18]) | activation at 10 µM (348 GPCRs [1]; [19]) | activation at 100 µM (348 GPCRs [2]; [20]) | activation at 10 µM (348 GPCRs [3]; [21]) | activation at 100 µM (348 GPCRs [4]; [22]) | activation at 100 µM (348 GPCRs [5]; [23]) | activation at 100 µM (348 GPCRs [6]; [24]) | activation at 100 µM (348 GPCRs [7]; [25]) | activation at 10 µM (348 GPCRs [8]; [26]) | activation at 10 µM (348 GPCRs [9]; [27]) | activation at 100 µM (348 GPCRs [9]; GPCR M2 (Muscarinic acetylcholine receptor M2), 100μM, read-out: % GPCR activation compared to TPA) |
| --- | --- | --- | --- | --- | --- | --- | --- | --- | --- | --- | --- | --- | --- | --- | --- | --- | --- | --- | --- |
| N#C[C@@]1(c2ccc3c(N)ncnn23)O[C@H](CO)[C@@H](O)[C@H]1O [GS441524] | 0.154% | -1.84% | 2.73% | -1.77% | 2.17% | -3.54% | 2.25% | -1.56% | 4.87% | – | – | – | – | – | – | – | – | – | – |
| CC(C)OC(=O)[C@H](C)N[P@](=O)(OC[C@H]1O[C@@H](n2ccc(=O)[nH]c2=O)[C@](C)(F)[C@@H]1O)Oc1ccccc1 [sofosbuvir] | – | – | – | – | – | – | – | – | – | -2.66% | -0.617% | -4.3% | -0.631% | 2.91% | -2.01% | -0.187% | -1.24% | 1.35% | – |
| CCC(CC)COC(=O)[C@H](C)N[P@](=O)(OC[C@H]1O[C@@](C#N)(c2ccc3c(N)ncnn23)[C@H](O)[C@@H]1O)Oc1ccccc1 [remdesivir] | – | – | – | – | – | – | – | – | – | 1.47% | 6.06% | 0.527% | -2.25% | -0.597% | 1.27% | 3.03% | -2.02% | 6% | – |
| CC(C)C(=O)OC[C@H]1O[C@@H](n2ccc(NO)nc2=O)[C@H](O)[C@@H]1O [molnupiravir] | -0.35% | -0.606% | -2.66% | -2.56% | 0.536% | -0.059% | 0.404% | -3.58% | 0.695% | – | – | – | – | – | – | – | – | – | – |
| NC(=O)c1nc(F)cnc1O [favipiravir, 6-fluoro-3-hydroxy-2-pyrazinecarboxamide] | 0.208% | -1.59% | -2.41% | -1.8% | 0.818% | -3.06% | 3.96% | -1.14% | – | – | – | – | – | – | – | – | – | – | 2.32% |
